In PubChem BioAssay (NCI):
Values joined by “and” are separate entries in the source; they are usually repeats but may differ in a detail not shown here. Identical values can stand only once.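 Five concentrations, 48 hours, 96-well plates. GI50: concentration for 50% inhibition of growth. TGI: concentration producing complete growth inhibition.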

Tested on: MDA-MB-468 breast
Assay: NCI tumour cell line growth inhibition, 48 h

SMILES | GI50 | TGI
C[n+]1c2ccccc2nc2c(N)cc(N)cc21 | 1180 nM | 4980 nM
N#CCCNc1nonc1-c1nc2ccccc2n1CC(=O)c1ccc(NC(=O)[C@@H](N)CCCCN)cc1 | 23.6 nM | 
CCc1c(C)nc2sc3c(N)ncnc3c2c1C | > 25000 nM | > 25000 nM
COc1cc(/C=C/c2ccc3c(Br)cc(Br)c(O)c3n2)ccc1O | 1380 nM | 5290 nM
CCOC(=O)c1c(NC(=O)c2cccc(C(F)(F)F)c2)sc2c3c(ccc12)OCN(C)C3 | 1520 nM | 2970 nM
C=CCc1cc(Nc2c3ccc(Cl)cc3nc3ccc(OC)cc23)cc(CN(CC)CC)c1O | 546 nM | 3240 nM
c1ccc(N=C2c3ccsc3C(=Nc3ccccc3)c3ccsc32)cc1 | 1780 nM | 3610 nM
CN1CCc2nc3sc(C(N)=O)c(N)c3c(-c3cccs3)c2C1 | 1750 nM | 4860 nM
Cc1ccncc1C(N)=O | > 100000 nM | > 100000 nM
C[C@@H]1Cc2cc(O)ccc2[C@H]2CC[C@]3(C)/C(=C/COCCN(C)C)CC[C@H]3[C@H]12 (tested in a mixture with another compound) | 1070 nM | 3200 nM
COc1ccc(/C=C(/C)[N+](=O)[O-])cc1OC | 1340 nM and 1150 nM | 2770 nM and 2530 nM
O=C(CSc1nnc(-c2ccc(Cl)cc2)n1-c1ccccc1)Nc1ccc(Cl)cc1 | 2830 nM | 8270 nM
N/C(=N\OC(=O)c1ccccc1)C(Cc1ccccc1)C(=O)NOC(=O)c1ccccc1 (stereo not given) | 4100 nM | 17500 nM
O=C1C(OCCOc2ccccc2)=C(OCCOc2ccccc2)C(=O)c2ccccc21 | 9920 nM | > 100000 nM
CC1C=CC(OC(=O)C(C)(O)CCC(O)(C(=O)OC2CC(O)C(C(C)C)CC2(C)O)C(C)C)(C(C)C)CC1 (stereo not given) | 360 nM | 1220 nM
CN1CCN(CCCCCN=c2cc3c(=O)n(CCCCCN4CCN(C)CC4)c(=O)c4c(NCCCCCN5CCN(C)CC5)cc5c(O)n(CCCCCN6CCN(C)CC6)c(=O)c2c5c4-3)CC1 | 2260 nM | 6310 nM
COc1ccc2c(c1)C(=O)c1c-2c(OCCN(C)C)nc2ccccc12 | 2760 nM | 11300 nM

SMILES | GI50 | TGI
COc1ccc(Nc2ccc([N+](=O)[O-])cc2[N+](=O)[O-])cc1CN(CCCl)CCCl | 1990 nM | 5090 nM
Nc1n[nH]c2ccc([C@@H]3Nc4cc5c(cc4[C@H]4C6CCC(C6)[C@@H]34)C(=O)NC5)cc12 (stereo not given in full) | 323 nM | > 100000 nM
CC(C)C[C@H](NC(=O)CCn1ccc2ccccc2c1=O)B(O)O | 1380 nM | 7080 nM
Cc1[nH]c(-c2cc(N)ccc2Cl)c2c1C(=O)CCCC2 | 1900 nM | 9460 nM
COc1cc(C(=O)Nc2cc(O)c(CC=C(C)C)c(O)c2)cc2c1O[C@]1(C)CC[C@@H](O)C(C)(C)[C@H]1C2 | 648 nM | 32900 nM
COc1cccc(Oc2ccccc2NC(=O)CNC(=O)c2cccc3ccccc23)c1 | 331 nM | > 25000 nM
O=C(CN1N=C(c2ccc(F)cc2)CCC1=O)Nc1nc2ccccc2s1 | 21100 nM | 85900 nM
COc1cc2c(cc1F)C(c1ccccc1Cl)=Nc1c(n[nH]c1C)N2 | 342 nM | 3730 nM
Oc1c(-c2cc(C(F)(F)F)[nH]n2)cc(Cl)c(OCc2ccc(Cl)cc2)c1-c1ccc(Cl)c(C(F)(F)F)c1 | 208 nM | 1660 nM
O=c1c2cc(F)ccc2sc2c(NCCCNCCO)nc3ccccc3c12 | 1090 nM | 2430 nM
FC(F)(F)c1cccc(-c2nn3ncccc3c2-c2ccnc(Nc3ccc4c(c3)OCCO4)n2)c1 | 3970 nM | 17900 nM
O=Nc1c(-c2c(O)[nH]c3ncccc23)[nH]c2ccccc12 | 4120 nM | > 100000 nM
COc1ccc2c(-c3ccnc(Nc4cccc(OC(F)(F)F)c4)n3)cnn2n1 | 1260 nM | 4690 nM
CCN1C(=O)N(CC)C2C1NN=c1s/c(=C\c3ccc(F)cc3)c(=O)n12 (stereo not given) | 168 nM | > 100000 nM
CC1c2ccccc2CCN1c1ccc(CO)c(Cl)c1 (stereo not given) | 15.1 nM | 39.3 nM
COc1cc(-c2nn(-c3cccc(NC(=O)CCN4CCN(Cc5ccccc5)CC4)c3)cc2-c2ccncc2)ccc1Cl | 433 nM | 16200 nM
